Data on 18 molecules can be found in ChEMBL document CHEMBL3351527, “Multitarget drug design strategy: quinone-tacrine hybrids designed to block amyloid-β aggregation and to exert anticholinesterase and antioxidant effects” (J Med Chem, 2014).

Molecules are shown by their SMILES. The source made the active and inactive calls. No cut-off for these calls is given here.

Data set [1] is described as follows: Cytotoxicity against mouse Neuro2a cells assessed as reduction in cell viability after 24 hrs by MTT assay. The class given is cell-based. To be noted: n2a.
Data set [2] concerns the target Acetylcholinesterase (Homo sapiens, UniProt P22303).
Description: Inhibition of human recombinant AChE after 5 mins by Ellman method
Data set [3] in a line: Cytotoxicity against rat CGN cells assessed as reduction in cell viability after 24 hrs by MTT assay. The class given is cell-based.
The target in data set [4] is Cholinesterase (Homo sapiens, UniProt P06276).
Chain of Cholinesterase (P06276 whole entry): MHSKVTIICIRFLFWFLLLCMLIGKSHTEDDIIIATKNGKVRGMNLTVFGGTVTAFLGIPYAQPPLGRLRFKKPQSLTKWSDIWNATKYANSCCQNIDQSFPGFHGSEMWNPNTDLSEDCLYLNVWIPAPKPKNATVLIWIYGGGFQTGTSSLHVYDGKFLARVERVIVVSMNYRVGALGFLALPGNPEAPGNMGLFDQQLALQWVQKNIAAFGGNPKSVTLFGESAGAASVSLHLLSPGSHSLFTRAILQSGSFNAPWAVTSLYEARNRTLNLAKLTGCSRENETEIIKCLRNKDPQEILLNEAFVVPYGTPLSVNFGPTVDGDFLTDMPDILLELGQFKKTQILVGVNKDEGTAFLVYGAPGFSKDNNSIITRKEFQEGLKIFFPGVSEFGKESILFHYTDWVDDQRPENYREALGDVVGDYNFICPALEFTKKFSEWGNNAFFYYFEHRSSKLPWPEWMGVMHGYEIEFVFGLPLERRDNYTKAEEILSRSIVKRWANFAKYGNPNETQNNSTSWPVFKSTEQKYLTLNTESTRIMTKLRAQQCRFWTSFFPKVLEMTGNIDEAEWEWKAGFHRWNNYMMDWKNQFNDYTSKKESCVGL
Description: Inhibition of human plasmatic BChE after 5 mins by Ellman method
Data set [5] relates to Rattus norvegicus. Briefly: Ex vivo inhibition of AChE in Wistar rat cerebellum at 10 or 50 umol/kg, ip measured 1 hr post dose by colorimetric method. The class given is functional, organism-based.
In data set [6] the test system is T67. Briefly: Antioxidant activity in tert-butyl hydroperoxide-stimulated human T67 cells assessed as reduction in intracellular ROS production at 10 uM after 24 hrs by spectrophotometry in presence of sulforaphane. It counts as functional, cell-based.
Data set [7] relates to Rattus norvegicus. Briefly: Ex vivo inhibition of AChE in ip dosed Wistar rat telencephalon measured 1 hr post dose by colorimetric method. The class given is functional, organism-based.
Data set [8] is described as follows: Cytotoxicity against rat CGN cells assessed as cell viability at 12.5 uM after 24 hrs by MTT assay relative to control. The class given is cell-based. The note with it: read-out: Activity. (Tetrazolium assays rely on reduction of a dye to a coloured formazan, in cell work by metabolically active cells.)
Data set [9] is described as follows: Cytotoxicity against mouse Neuro2a cells assessed as cell viability at 12.5 uM after 24 hrs by MTT assay relative to control. It counts as cell-based, N2a. The note with it: read-out: Activity.
For data set [10], the system named is HepG2. As to the kind of experiment: Hepatotoxicity in human HepG2 cells assessed as reduction in cell viability at 12.5 to 50 uM after 24 hrs by MTT assay. To be noted: hepg2, 24 h. It counts as toxicity, cell-based.
The subject of data set [11] is T67. Briefly: Antioxidant activity in tert-butyl hydroperoxide-stimulated human T67 cells assessed as reduction in intracellular ROS production at 10 uM after 24 hrs by spectrophotometry. The class given is functional, cell-based.
Data set [12] concerns N2a. Briefly: Neuroprotective effect in amyloid beta-stimulated mouse Neuro2a cells assessed as increase in cell viability at 12.5 uM after 24 hrs by MTT assay. It counts as functional, cell-based.

Chain of Acetylcholinesterase (P22303 whole entry): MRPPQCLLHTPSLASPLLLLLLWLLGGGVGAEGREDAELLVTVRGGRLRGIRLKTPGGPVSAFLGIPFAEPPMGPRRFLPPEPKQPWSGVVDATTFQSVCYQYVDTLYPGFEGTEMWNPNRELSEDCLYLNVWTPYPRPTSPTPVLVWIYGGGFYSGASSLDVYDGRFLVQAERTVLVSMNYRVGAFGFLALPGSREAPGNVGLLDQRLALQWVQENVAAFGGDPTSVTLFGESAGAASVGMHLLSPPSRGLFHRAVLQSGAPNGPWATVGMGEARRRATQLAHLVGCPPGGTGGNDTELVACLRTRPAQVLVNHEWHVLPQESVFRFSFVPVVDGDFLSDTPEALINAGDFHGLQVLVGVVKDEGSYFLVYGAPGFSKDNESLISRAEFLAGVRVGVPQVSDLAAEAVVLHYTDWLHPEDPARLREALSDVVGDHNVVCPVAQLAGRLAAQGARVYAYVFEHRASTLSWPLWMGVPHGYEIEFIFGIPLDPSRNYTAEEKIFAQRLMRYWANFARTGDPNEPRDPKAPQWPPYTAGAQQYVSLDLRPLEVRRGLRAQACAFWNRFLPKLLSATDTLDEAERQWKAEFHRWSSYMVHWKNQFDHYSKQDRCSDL

Consider `COc1ccc2nc3c(c(NCCNC4=C(Cl)C(=O)c5ccccc5C4=O)c2c1)CCCC3`, for which the Activity result in data set [1] and in [3] was “Toxic” each time. Moreover, the half-inhibitory concentration (IC50) came to 1370 nM in [2] and 970 nM in data set [4].

On to `O=C1C=C(NCCNc2c3c(nc4ccccc24)CCCC3)C(=O)c2ccccc21`, for which the Activity result in [1] was “Non-toxic”; in data set [3], “Toxic”. The IC50 in data set [2] was 14.3 nM; in data set [4] it was 5.45 nM.

For `O=C1C(Cl)=C(NCCCNc2c3c(nc4cc(Cl)ccc24)CCCC3)C(=O)c2ccccc21`, the Activity entry in data set [1] and in data set [3] was “Toxic” throughout. The values for the IC50 in data set [2] and in [4] were 8.94 nM and 234 nM, respectively.

As for `COc1ccc2nc3c(c(NCCCNC4=C(Cl)C(=O)c5ccccc5C4=O)c2c1)CCCC3`, the Activity entry in [1] and in data set [3] was “Toxic” in each case. The half-maximal inhibitory concentration (IC50) in data set [2] is 809 nM; in data set [4], 742 nM.

Take `O=C1C(NCCNc2c3c(nc4ccccc24)CCCC3)=CC(=O)c2c(O)cccc21`: the Activity result in data set [1] and in data set [3] was “Toxic” in each case. Also, the concentration for half-maximal inhibition (IC50) in data set [2] turned out to be 24.7 nM; in data set [4], 41.4 nM.

Turning to `O=C1C=C(NCCNc2c3c(nc4cc(Cl)ccc24)CCCC3)C(=O)c2ccccc21`, the inhibition entry in data set [5] was “inactive”. Besides, the Activity result in data set [1] is “Non-toxic”; in [10], “Non-toxic”; in [3], “Toxic”. In addition, the result in data set [6] and in data set [12] was Active. Moreover, the concentration for half-maximal inhibition (IC50) in data set [2] was found to be 1.93 nM; in data set [4] it was 256 nM. Besides, the inhibition result in data set [7] is “Dose-dependent effect”. In addition, the viability at 24 h, 12.5 µM in [8] was determined as 75%; in data set [9], 105%. Also, in data set [11], the result was inactive.

In the case of `COc1ccc2nc3c(c(NCCNC4=CC(=O)c5c(O)cccc5C4=O)c2c1)CCCC3`, the Activity entry in data set [1] and in data set [3] was “Toxic” in each case. Also, the IC50 in data set [2] turned out to be 651 nM; in [4], 1280 nM.

For the molecule `O=C1C=C(NCCCNc2c3c(nc4ccccc24)CCCC3)C(=O)c2ccccc21`, the Activity entry in [1] is given as “Non-toxic”; in [3], “Toxic”. Moreover, the values for the IC50 in data set [2] and in data set [4] were 53.7 nM and 19.1 nM, respectively.

Regarding `O=C1C(Cl)=C(NCCCNc2c3c(nc4ccccc24)CCCC3)C(=O)c2ccccc21`, the Activity result in data set [1] and in data set [3] was “Toxic” throughout. Besides, the IC50 in data set [2] was 38 nM; in [4], 47.8 nM.

Turning to `O=C1C(NCCCNc2c3c(nc4cc(Cl)ccc24)CCCC3)=CC(=O)c2c(O)cccc21`, the Activity entry in [1] and in [3] was “Toxic” each time. The IC50 in data set [2] turned out to be 9.24 nM; in data set [4], 258 nM.

With `O=C1C(Cl)=C(NCCNc2c3c(nc4ccccc24)CCCC3)C(=O)c2ccccc21`, the Activity result in [1] and in [3] was “Toxic” in each case. The IC50 in data set [2] and in data set [4] was 96.1 nM in each case.

In the case of `O=C1C(NCCCNc2c3c(nc4ccccc24)CCCC3)=CC(=O)c2c(O)cccc21`, the Activity entry in data set [1] and in data set [3] was “Toxic” each time. The figures for the half-maximal inhibitory concentration (IC50) in data set [2] and in data set [4] were 103 nM and 14.5 nM, respectively.

As for `COc1ccc2nc3c(c(NCCNC4=CC(=O)c5ccccc5C4=O)c2c1)CCCC3`, the Activity result in data set [1] and in [3] was “Toxic” in each case. Besides, the concentration for half-maximal inhibition (IC50) in data set [2] was 2530 nM; in [4], 501 nM.

Consider `O=C1C(NCCNc2c3c(nc4cc(Cl)ccc24)CCCC3)=CC(=O)c2c(O)cccc21`, for which, in data set [5], the inhibition result was “inactive”. The Activity result in [1] and in [3] was “Toxic” each time. Moreover, the result in data set [6] and in data set [12] was Active. Moreover, the 50% inhibitory concentration (IC50) in data set [2] was 0.72 nM; in data set [4] it was 542 nM. Also, in [7], the inhibition entry is “Dose-dependent effect”. Further, the viability at 24 h, 12.5 µM in [8] came to 73.5%; in data set [9] it was 85.6%. Further, the outcome in data set [11] was inactive.

`COc1ccc2nc3c(c(NCCCNC4=CC(=O)c5c(O)cccc5C4=O)c2c1)CCCC3`: the Activity entry in data set [1] and in [3] was “Toxic” throughout. Also, the half-inhibitory concentration (IC50) in data set [2] amounted to 348 nM; in data set [4] it was 329 nM.

Consider `O=C1C(Cl)=C(NCCNc2c3c(nc4cc(Cl)ccc24)CCCC3)C(=O)c2ccccc21`, for which the Activity entry in data set [1] and in [3] was “Toxic” in each case. Besides, the figures for the IC50 in data set [2] and in data set [4] were 3.21 nM and 287 nM, respectively.

For `O=C1C=C(NCCCNc2c3c(nc4cc(Cl)ccc24)CCCC3)C(=O)c2ccccc21`, the Activity result is listed as “Non-toxic” in data set [1] and “Toxic” in data set [3]. Moreover, the half-maximal inhibitory concentration (IC50) in data set [2] was 5.4 nM; in data set [4] it was 197 nM.

`COc1ccc2nc3c(c(NCCCNC4=CC(=O)c5ccccc5C4=O)c2c1)CCCC3`: the Activity result in data set [1] is “Non-toxic”; in data set [3] it was “Toxic”. Also, the IC50 in [2] is 6150 nM; in data set [4], 635 nM.

For orientation: IC50 means the concentration that gives 50% inhibition.
